Values joined by “and” are separate entries in the source; they are usually repeats but may differ in a detail not shown here. Identical values can stand only once.
Legend:
eIF2B = target: T1, eIF2B (Homo sapiens, UniProt P49770+Q14232+Q9UI10); assay: eIF2B GEF activity assay, unbiased metabolite screen (Bodipy-FL-GDP release); assay type: biochemical; conditions: 10 μM metabolite
T1 construct: made in house; host or cells: eIF2Bα: E. coli BL21(DE3)
Experimental: Bodipy-FL-GDP-loaded eIF2 was used as a substrate for recombinant eIF2B. The assay was performed in 384-well plates. Reactions were read on a SpectraMax i3x plate reader (Molecular Devices) using the instrument’s Softmax Pro software with the following parameters: plate temperature = 25 °C; excitation wavelength = 485 nm (15 nm width); emission wavelength = 535 nm (25 nm width); read duration = 30 min at 45 s intervals. Data were analyzed in Prism. GDP release half-lives were calculated by fitting single-exponential decay curves.
For unbiased screening, MIDAS metabolite libraries at 10 mM stock concentration were dispensed into wells of the assay plate using an Echo Acoustic Liquid Handler (Labcyte). […] A single well was run for each metabolite. […] For targeted experiments with HEK293T lysates, the following conditions were used: 50 nM Bodipy-FL-GDP-loaded eIF2, 0.1 mM GDP, 1 mg/ml BSA, 0.1 or 0.3 mg/ml lysates.

[1] = test system: recombinant C. thermophilum eIF2Bα; set-up: method as in PMID 26384431; conditions: ITC; cited from earlier work
eIF2Bα [2] = target: T2, eIF2Bα (Homo sapiens, UniProt Q14232); assay: MIDAS (mass spectrometry integrated with equilibrium dialysis) metabolite binding screen; conditions: MIDAS screen, sheet eIF2Ba; metabolites screened in pools 1-4; p-value and q-value given
T2 construct: made in house; host or cells: E. coli BL21(DE3)
T2 sequence (Q14232 1-305): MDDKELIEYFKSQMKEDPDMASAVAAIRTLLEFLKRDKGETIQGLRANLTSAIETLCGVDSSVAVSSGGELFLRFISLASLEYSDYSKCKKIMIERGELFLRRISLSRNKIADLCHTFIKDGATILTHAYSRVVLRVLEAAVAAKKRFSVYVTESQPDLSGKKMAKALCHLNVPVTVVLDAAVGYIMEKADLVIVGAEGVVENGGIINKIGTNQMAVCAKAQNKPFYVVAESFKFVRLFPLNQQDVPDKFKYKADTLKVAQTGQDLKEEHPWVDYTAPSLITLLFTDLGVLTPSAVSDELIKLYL
Outline: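 Hits called at Storey q < 0.1 on z-scores of PCA-corrected log2 fold change between protein and metabolite chambers, quantified by FIA-MS in triplicate.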

eIF2Bα [3] = target: T2, eIF2Bα; assay: Differential scanning fluorimetry (Protein Thermal Shift), eIF2Bα Tm; assay type: binding; conditions: individual replicates Rep 1-4, control without metabolite about 64.1
Experimental: The effect of metabolite binding on eIF2Bα Tm was assessed using the Protein Thermal Shift assay (Thermo Fisher), following manufacturer’s instructions. Briefly, reaction conditions for each 20 μL reaction were: 1.1 μg (1.5 μM) of eIF2Bα, 5 μl Thermal Shift buffer, 1X Thermal Shift dye, and metabolites in dose response. Reactions were run in 384-well format on a QuantStudio 6 Flex instrument (Thermo Fisher). The resulting melt curves were analyzed using Protein Thermal Shift Software, and eIF2Bα Tms for each condition were calculated by fitting to the Boltzmann function.

[4] = target: the molecule itself; assay: SEC; purified eIF2Bα alone, 2.4 μM, Superose 6 Increase 10/300, 25 mM HEPES, 200 mM KCl, 2 mM MgCl2, 1 mM DTT, pH 7.5; no ligand (500 nM ISRIB had no effect)

T1 sequence (P49770 whole entry, one chain of several): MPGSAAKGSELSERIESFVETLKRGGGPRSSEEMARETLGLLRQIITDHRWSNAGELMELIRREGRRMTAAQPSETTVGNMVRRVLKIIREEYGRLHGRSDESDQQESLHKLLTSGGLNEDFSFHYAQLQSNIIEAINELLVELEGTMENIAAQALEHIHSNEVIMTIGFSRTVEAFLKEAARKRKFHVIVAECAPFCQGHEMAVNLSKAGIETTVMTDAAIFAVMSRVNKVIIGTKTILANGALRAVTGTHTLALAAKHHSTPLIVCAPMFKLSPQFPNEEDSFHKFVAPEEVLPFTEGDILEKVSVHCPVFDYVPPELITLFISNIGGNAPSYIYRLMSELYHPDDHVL
T1 sequence (Q9UI10 whole entry, one chain of several): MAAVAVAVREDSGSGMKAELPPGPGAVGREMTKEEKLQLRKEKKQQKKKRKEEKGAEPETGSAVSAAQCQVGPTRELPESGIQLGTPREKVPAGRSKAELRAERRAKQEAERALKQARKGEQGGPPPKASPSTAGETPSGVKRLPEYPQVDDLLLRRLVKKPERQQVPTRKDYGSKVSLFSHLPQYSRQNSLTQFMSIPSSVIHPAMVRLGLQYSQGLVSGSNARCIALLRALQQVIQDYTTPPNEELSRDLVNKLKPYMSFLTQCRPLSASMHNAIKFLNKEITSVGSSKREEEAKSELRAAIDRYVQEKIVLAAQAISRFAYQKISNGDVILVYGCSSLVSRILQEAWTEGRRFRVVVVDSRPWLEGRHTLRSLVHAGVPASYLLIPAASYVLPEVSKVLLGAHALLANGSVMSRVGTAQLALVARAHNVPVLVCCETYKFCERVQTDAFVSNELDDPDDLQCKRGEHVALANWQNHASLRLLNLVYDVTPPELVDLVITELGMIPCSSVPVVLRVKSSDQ
T1 sequence (Q9NR50 whole entry partner, one chain of several): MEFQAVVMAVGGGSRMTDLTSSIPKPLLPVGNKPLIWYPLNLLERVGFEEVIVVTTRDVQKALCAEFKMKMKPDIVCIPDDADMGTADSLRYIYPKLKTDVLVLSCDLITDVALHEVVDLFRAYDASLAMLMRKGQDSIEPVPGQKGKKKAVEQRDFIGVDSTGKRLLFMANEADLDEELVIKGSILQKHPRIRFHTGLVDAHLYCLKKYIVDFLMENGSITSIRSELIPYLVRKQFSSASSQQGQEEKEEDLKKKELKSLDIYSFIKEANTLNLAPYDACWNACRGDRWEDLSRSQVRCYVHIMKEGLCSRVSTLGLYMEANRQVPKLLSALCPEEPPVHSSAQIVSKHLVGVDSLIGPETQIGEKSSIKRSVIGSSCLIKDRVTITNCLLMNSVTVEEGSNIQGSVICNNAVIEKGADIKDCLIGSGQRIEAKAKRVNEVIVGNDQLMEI
T1 sequence (Q13144 whole entry partner, one chain of several): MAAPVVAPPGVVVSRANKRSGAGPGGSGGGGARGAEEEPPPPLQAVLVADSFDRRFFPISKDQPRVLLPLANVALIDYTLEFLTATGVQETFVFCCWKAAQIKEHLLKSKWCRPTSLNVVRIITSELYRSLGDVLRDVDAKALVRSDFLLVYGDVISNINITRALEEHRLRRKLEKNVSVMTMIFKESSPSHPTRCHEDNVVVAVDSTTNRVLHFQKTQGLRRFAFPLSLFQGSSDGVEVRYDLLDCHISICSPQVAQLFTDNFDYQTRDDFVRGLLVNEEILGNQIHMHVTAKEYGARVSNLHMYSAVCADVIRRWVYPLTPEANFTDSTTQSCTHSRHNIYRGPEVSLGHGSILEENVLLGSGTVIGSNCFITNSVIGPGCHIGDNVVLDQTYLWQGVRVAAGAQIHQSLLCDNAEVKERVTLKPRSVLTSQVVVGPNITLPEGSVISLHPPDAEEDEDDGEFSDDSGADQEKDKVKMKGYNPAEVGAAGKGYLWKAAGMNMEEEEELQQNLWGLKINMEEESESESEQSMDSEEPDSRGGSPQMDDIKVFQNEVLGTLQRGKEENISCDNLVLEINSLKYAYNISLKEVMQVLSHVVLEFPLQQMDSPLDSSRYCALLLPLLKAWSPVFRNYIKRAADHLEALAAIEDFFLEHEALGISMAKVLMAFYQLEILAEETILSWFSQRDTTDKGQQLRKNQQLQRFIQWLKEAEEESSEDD

Nc1ncnc2c1ncn2[C@@H]1O[C@H](COP(=O)(O)O)[C@@H](O)[C@H]1O [AMP, Adenosine monophosphate]
effect on eIF2B GEF activity in the screen (eIF2B): a hit in this functional assay screen | binding to C. thermophilum eIF2Bα [1]: binding | log2(corrected fold change) (eIF2Bα [2]): 0.1066 | Tm of eIF2Bα (eIF2Bα [3]; 0.33 mM metabolite): 65.271 °C and 65.2418 °C and 65.0115 °C and 64.5232 °C | Tm of eIF2Bα (eIF2Bα [3]; 1 mM metabolite): 66.0123 °C and 65.9255 °C and 65.7398 °C and 64.0959 °C | Tm of eIF2Bα (eIF2Bα [3]; 3.3 mM metabolite): 65.3392 °C and 65.2463 °C and 65.3342 °C and 64.7156 °C | Tm of eIF2Bα (eIF2Bα [3]; 10 mM metabolite): 66.4657 °C and 66.4512 °C and 66.2897 °C and 64.6159 °C

B1: eIF2Bα (eukaryotic translation initiation factor 2B, α subunit), wild type, recombinant (natural protein, human)
chain: MDDKELIEYFKSQMKEDPDMASAVAAIRTLLEFLKRDKGETIQGLRANLTSAIETLCGVDSSVAVSSGGELFLRFISLASLEYSDYSKCKKIMIERGELFLRRISLSRNKIADLCHTFIKDGATILTHAYSRVVLRVLEAAVAAKKRFSVYVTESQPDLSGKKMAKALCHLNVPVTVVLDAAVGYIMEKADLVIVGAEGVVENGGIINKIGTNQMAVCAKAQNKPFYVVAESFKFVRLFPLNQQDVPDKFKYKADTLKVAQTGQDLKEEHPWVDYTAPSLITLLFTDLGVLTPSAVSDELIKLYL
notes: eIF2Bα, human, UniProt Q14232; called the small 34 kDa eIF2Bα subunit; C-terminal TEV-avi-FLAG tag; also called eIF2Bα2; α2
stoichiometry N [4]: 2
